We go through 1 compound from article PMC546329, “SIRT1 Regulates HIV Transcription via Tat Deacetylation” (PLoS Biology, 2005).

The structures appear in SMILES notation.

This assay concerns the target T1, SIRT1 (Homo sapiens, UniProt Q96EB6).
T1 construct: FLAG-tagged SIRT1 immunoprecipitated from HEK 293 cells
T1 sequence (Q96EB6 2-747): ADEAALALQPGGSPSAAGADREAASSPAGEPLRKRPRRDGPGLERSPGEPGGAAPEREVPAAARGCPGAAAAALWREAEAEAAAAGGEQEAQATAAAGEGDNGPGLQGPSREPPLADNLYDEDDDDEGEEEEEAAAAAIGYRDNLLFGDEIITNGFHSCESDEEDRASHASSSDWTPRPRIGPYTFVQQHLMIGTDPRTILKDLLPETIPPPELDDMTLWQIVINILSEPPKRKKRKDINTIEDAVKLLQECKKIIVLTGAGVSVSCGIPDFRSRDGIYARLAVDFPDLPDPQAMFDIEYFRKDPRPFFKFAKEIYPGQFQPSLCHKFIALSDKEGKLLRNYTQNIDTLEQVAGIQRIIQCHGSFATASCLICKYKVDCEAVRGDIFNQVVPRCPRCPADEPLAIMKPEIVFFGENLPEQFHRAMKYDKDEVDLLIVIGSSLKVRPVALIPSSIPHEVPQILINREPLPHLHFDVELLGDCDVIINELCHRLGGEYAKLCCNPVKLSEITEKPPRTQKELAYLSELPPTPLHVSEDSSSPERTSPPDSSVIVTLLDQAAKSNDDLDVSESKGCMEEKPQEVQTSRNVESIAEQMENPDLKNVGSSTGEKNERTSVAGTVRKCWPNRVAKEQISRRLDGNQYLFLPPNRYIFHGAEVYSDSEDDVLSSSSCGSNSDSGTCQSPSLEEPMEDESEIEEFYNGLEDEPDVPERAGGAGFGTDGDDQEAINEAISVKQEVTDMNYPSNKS
Description: deacetylation of synthetic acetylated Tat by immunoprecipitated SIRT1 with or without […] NAD+, Western blot. Type of assay: biochemical. A general note: Immunoblotting shows a protein as a band on a membrane.

Take `NC(=O)c1ccc[n+]([C@@H]2O[C@H](COP(=O)([O-])OP(=O)(O)OC[C@H]3O[C@@H](n4cnc5c(N)ncnc54)[C@H](O)[C@@H]3O)[C@@H](O)[C@H]2O)c1` [NAD^+]: the “deacetylation of synthetic acetylated Tat by immunoprecipitated SIRT1 with or wi” value was “The SIRT1-mediated deacetylation of Tat was dependent on NAD^+”.
